Measurements taken from US12465594B2 (Brown University, priority 2018, dated 2025).

Legend:
[1] = target: HEK293 cells expressing FLAG-CRFBP(10 kD)-HA-CRF2α (Homo sapiens, UniProt P24387+Q13324); settings: 384-well format
[2] = tested on: NMDAR EPSCs in VTA dopamine neurons; experiment: Electrophysiology: CRF potentiation of NMDAR EPSCs in VTA slices; assay type: cell-based, mouse; settings: CRF 1 μM, VTA-DA neurons, acute brain slices
From the text: Male and female mice (n=44; 6-10 weeks) were anesthetized with Euthasol (Butler-Schein). Brains were rapidly removed and placed in ice-cold NMDG-based artificial Cerebrospinal Fluid (aCSF) cutting solution containing (in mM): 92 NMDG, 20 HEPES, 25 glucose, 30 NaHCO3, 2.5 KCl, 1.2 NaPO4 saturated with 95% O2/5% CO2 with an osmolarity of 305-308 mOsm (Advanced Cell Diagnostics). The brain was cut in ice-cold NMDG solution to obtain horizontal VTA slices, 230 μm thick, using a Leica vibratome (Leica VT1200) and slices were incubated in warm NMDG solution (34° C.) for <5 minutes before being placed in a modified aCSF holding solution (in mM): 92 NaCl, 20 HEPES, 25 glucose, 30 NaHCO3, 2.5 KCl, 1.2 NaPO4 (305-308 mOsm). Slices were incubated at room temperature for at least 1 hour before recording.
Whole-cell patch clamp of the lateral VTA was performed under the guidance of IR-DIC optics on an Olympus BX5iWI microscope. Cells were patched with 1.8-3 MO resistance glass microelectrodes containing the following internal solution (in mM): 117 cesium methanesulfonate, 20 HEPES, 0.4 EGTA, 2.8 NaCl, 5 TEA-CI, 4 Mg-ATP, 0.4 Na-GTP, and 5 QX-314 (280-285 mOsm). Dopamine cells were identified by the following criteria: 1) large multipolar soma, 30-40 μm in diameter, 2) tonic firing of <4 Hz when cell attached, 3) large […] with negative voltage step (identified immediately following break in). […] Series resistance was monitored online. […]
For electrophysiology measures, excitatory post-synaptic currents (EPSCs) were normalized to 7 minute of averaged baseline responses, prior to drug application. […] Results are reported as M±SEM a in bar graphs comparing drug to vehicle and analyzed by a one-way ANOVA and post-hoc comparisons to vehicle were performed using a Bonferroni multiple comparisons correction measures (**p<0.01). […]
NMDAR excitatory postsynaptic currents (EPSCs) were recorded from VTA dopamine (DA) neurons in acute brain slices from male and female mice. […]

Chain of HEK293 cells expressing FLAG-CRFBP(10 kD)-HA-CRF2α (P24387+Q13324 fused): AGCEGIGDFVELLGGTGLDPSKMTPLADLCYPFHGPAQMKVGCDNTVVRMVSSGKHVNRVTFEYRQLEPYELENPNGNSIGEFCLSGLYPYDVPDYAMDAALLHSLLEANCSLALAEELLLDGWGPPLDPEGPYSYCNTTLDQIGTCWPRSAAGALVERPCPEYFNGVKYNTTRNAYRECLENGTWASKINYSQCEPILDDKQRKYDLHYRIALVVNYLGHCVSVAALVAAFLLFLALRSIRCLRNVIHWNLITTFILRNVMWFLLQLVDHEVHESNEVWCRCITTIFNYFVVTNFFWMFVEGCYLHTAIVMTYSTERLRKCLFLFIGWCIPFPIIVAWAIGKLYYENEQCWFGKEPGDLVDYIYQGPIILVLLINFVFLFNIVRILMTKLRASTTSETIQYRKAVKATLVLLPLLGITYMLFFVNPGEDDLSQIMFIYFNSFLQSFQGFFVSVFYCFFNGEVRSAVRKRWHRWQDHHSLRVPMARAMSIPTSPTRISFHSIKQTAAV

## corticotropin releasing factor [CRF, reference compound]
[1]
  EC80, CRF-induced intracellular calcium release: 1 µM
[2]
  Effect of CRF on NMDAR EPSCs: potentiated NMDA receptor EPSCs
